# Measurements reported in patent US20240174723A1, “STAPLED ANTIMICROBIAL PEPTIDES (STAMPS) AND USES THEREOF” (Lytica Therapeutics, Inc., priority 2021, published 2024).
# Positions of bridges follow the written chain, without caps; N, C: chain ends. Non-standard residues stand in square brackets, D forms with d. Residues, ends and D or L forms follow the SMILES beside them. Phe(4-tBu) = CC(C)(C)c1ccc(C[C@H](N)C(=O)O)cc1; S5 = C=CCCC[C@](C)(N)C(=O)O; Dab = NCC[C@H](N)C(=O)O
# Assays:
# E. coli = type: cell-based, Escherichia coli
# Outline: (§1)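 Visible-growth endpoint after 20-24 h at 37 °C defines the MIC. Test organisms, pre-grown to log phase, were exposed at 5×10^5 CFU/ml to peptide dilution series in standard or cation-adjusted Mueller-Hinton broth.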
# A. baumannii = type: cell-based, Acinetobacter baumannii
# Outline: as §1
# P. aeruginosa = type: cell-based, Pseudomonas aeruginosa
# Outline: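 MIC taken as lowest peptide concentration with no visible growth after 20-24 h at 37 °C. Peptide serial dilutions from water stocks met P. aeruginosa inoculum (5×10^5 CFU/ml final) in MHB or MHB II, per a CLSI-adapted microbroth protocol.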
# K. pneumoniae = type: cell-based, Klebsiella pneumoniae
# Outline: as §1
# S. aureus = type: cell-based, Staphylococcus aureus
# Outline: as §1
# in vitro [1] = type: cell-based; conditions: human
# Outline: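 LDH release (absorbance at 490 nm) measured in the media of cells treated with serially diluted StAMPs or vehicle at 37 °C: 90 min for renal RPTEC, 48 h for liver HepG2. Cells were seeded overnight beforehand and media refreshed before dosing.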
# in vitro [2] = type: cell-based; conditions: human, Inhibitory Concentration at 50% Cytotoxicity (IC50) Human Liver Cells (HepG2)
# Outline: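 Cytotoxicity read by CellTiter-Glo luminescence after 48 h at 37 °C exposure to serially diluted StAMPs or vehicle. HepG2 cells were grown in EMEM plus 10% FBS and given 4 h to attach before dosing; peptides came from a 5 mg/mL aqueous stock.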
Minimum Inhibitory Concentration (MIC) E. coli (E. coli),Minimum Inhibitory Concentration (MIC) A. baumannii (A. baumannii),Minimum Inhibitory Concentration (MIC) P. aeruginosa (P. aeruginosa),Minimum Inhibitory Concentration (MIC) K. pneumoniae (K. pneumoniae),Minimum Inhibitory Concentration (MIC) S. aureus (S. aureus),IC50 at 90 min (in vitro [1]),Compound,IC50 at 48 hours (in vitro [2])
4 µg/mL,4 µg/mL,8 µg/mL,16 µg/mL,32 µg/mL,35 µg/mL,"CC(C)[C@@H]1NC(=O)[C@@](C)(NC(=O)[C@H](C)NC(=O)[C@H](CCCCN)NC(=O)CNC(=O)[C@H](Cc2ccccc2)NC(=O)[C@H](CCCCN)NC(=O)[C@H](CCCCN)NC(=O)[C@H](CCCCN)NC(=O)[C@H](CO)NC(=O)[C@H](Cc2c[nH]cn2)NC(=O)[C@]2(C)CCCC=CCCC[C@](C)(NC(=O)CN)C(=O)N[C@@H](Cc3c[nH]c4ccccc34)C(=O)N[C@@H](CCCCN)C(=O)N[C@@H](Cc3ccccc3)C(=O)N2)CCCC=CCCC[C@@](C)(C(=O)N[C@@H](C)C(=O)N[C@@H](CCCCN)C(=O)N[C@@H](CCCCN)C(N)=O)NC(=O)[C@H](CCC(=O)O)NC(=O)CNC1=O [compound 57] (H-G[S5]WKF[S5]HSKKKFGKA[S5]VGE[S5]AKK-NH2; staple 2-6, 16-20)",70 µg/mL
4 µg/mL,4 µg/mL,8 µg/mL,8 µg/mL,16 µg/mL,9 µg/mL,"CC(C)[C@@H]1NC(=O)[C@H](C(C)C)NC(=O)[C@@](C)(NC(=O)[C@H](C)NC(=O)[C@H](CCCCN)NC(=O)CNC(=O)[C@H](Cc2ccc(C(C)(C)C)cc2)NC(=O)[C@H](CCCCN)NC(=O)[C@H](CCCCN)NC(=O)[C@H](CCCCN)NC(=O)[C@H](CCCCN)NC(=O)[C@H](Cc2c[nH]cn2)NC(=O)[C@]2(C)CCCC=CCCC[C@](C)(NC(=O)CN)C(=O)NCC(=O)N[C@@H](CCCCN)C(=O)N[C@@H](Cc3ccc(C(C)(C)C)cc3)C(=O)N2)CCCC=CCCC[C@@](C)(C(=O)N[C@@H](C)C(=O)N[C@@H](CCCCN)C(=O)N[C@@H](CCCCN)C(N)=O)NC(=O)[C@H](CCC(=O)O)NC1=O [compound 31] (H-G[S5]GK[Phe(4-tBu)][S5]HKKKK[Phe(4-tBu)]GKA[S5]VVE[S5]AKK-NH2; staple 2-6, 16-20)",101 µg/mL
4 µg/mL,16 µg/mL,4 µg/mL,4 µg/mL,>64 µg/mL,125 µg/mL,"CC(C)[C@@H]1NC(=O)[C@@](C)(NC(=O)[C@H](CCCCN)NC(=O)[C@H](CCCCN)NC(=O)[C@H](CCCCN)NC(=O)[C@H](CCCCN)NC(=O)[C@H](CCCCN)NC(=O)[C@]2(C)CCCC=CCCC[C@](C)(NC(=O)CN)C(=O)NCC(=O)N[C@@H](CCCCN)C(=O)N[C@@H](Cc3ccccc3)C(=O)N2)CCCC=CCCC[C@@](C)(C(=O)N[C@@H](C)C(=O)N[C@@H](CCCCN)C(=O)N[C@@H](CCCCN)C(N)=O)NC(=O)[C@H](CCC(=O)O)NC(=O)CNC1=O [compound 70] (H-G[S5]GKF[S5]KKKKK[S5]VGE[S5]AKK-NH2; staple 2-6, 12-16)",102 µg/mL

# Further lines, the molecule ahead of its results:
Compound,Minimum Inhibitory Concentration (MIC) E. coli (E. coli),Minimum Inhibitory Concentration (MIC) A. baumannii (A. baumannii),Minimum Inhibitory Concentration (MIC) P. aeruginosa (P. aeruginosa),Minimum Inhibitory Concentration (MIC) K. pneumoniae (K. pneumoniae),Minimum Inhibitory Concentration (MIC) S. aureus (S. aureus),IC50 at 90 min (in vitro [1]),IC50 at 48 hours (in vitro [2])
"CC(C)[C@@H]1NC(=O)[C@@](C)(NC(=O)[C@H](C)NC(=O)[C@H](CCN)NC(=O)CNC(=O)[C@H](Cc2ccccc2)NC(=O)[C@H](CCN)NC(=O)[C@H](CCN)NC(=O)[C@H](CCN)NC(=O)[C@H](CCN)NC(=O)[C@H](CCN)NC(=O)[C@]2(C)CCCC=CCCC[C@](C)(NC(=O)CN)C(=O)NCC(=O)N[C@@H](CCN)C(=O)N[C@@H](Cc3ccccc3)C(=O)N2)CCCC=CCCC[C@@](C)(C(=O)N[C@@H](C)C(=O)N[C@@H](CCN)C(=O)N[C@@H](CCN)C(N)=O)NC(=O)[C@H](CCC(=O)O)NC(=O)CNC1=O [compound 23] (H-G[S5]G[Dab]F[S5][Dab][Dab][Dab][Dab][Dab]FG[Dab]A[S5]VGE[S5]A[Dab][Dab]-NH2; staple 2-6, 16-20)",8 µg/mL,8 µg/mL,2 µg/mL,32 µg/mL,64 µg/mL,84 µg/mL,39 µg/mL
"CC(C)[C@@H]1NC(=O)[C@@](C)(NC(=O)[C@H](C)NC(=O)[C@H](CCCCN)NC(=O)CNC(=O)[C@H](Cc2ccccc2)NC(=O)[C@H](CCCCN)NC(=O)[C@H](CCCCN)NC(=O)[C@H](CCCCN)NC(=O)[C@H](CCCCN)NC(=O)[C@H](CCCCN)NC(=O)[C@]2(C)CCCC=CCCC[C@](C)(NC(=O)CN)C(=O)NCC(=O)N[C@@H](CCCCN)C(=O)N[C@@H](Cc3ccccc3)C(=O)N2)CCCC=CCCC[C@@](C)(C(=O)N[C@@H](CCCCN)C(N)=O)NC(=O)[C@H](CCC(=O)O)NC(=O)CNC1=O [compound 27] (H-G[S5]GKF[S5]KKKKKFGKA[S5]VGE[S5]K-NH2; staple 2-6, 16-20)",4 µg/mL,4 µg/mL,4 µg/mL,4 µg/mL,>64 µg/mL,100 µg/mL,117 µg/mL
"CC(C)[C@@H]1NC(=O)[C@@](C)(NC(=O)[C@H](C)NC(=O)[C@H](CCCCN)NC(=O)CNC(=O)[C@H](Cc2ccccc2)NC(=O)[C@H](CCCCN)NC(=O)[C@H](CCCCN)NC(=O)[C@H](CCCCN)NC(=O)[C@H](CO)NC(=O)[C@H](CCCCN)NC(=O)[C@]2(C)CCCC=CCCC[C@](C)(NC(=O)CN)C(=O)NCC(=O)N[C@@H](CCCCN)C(=O)N[C@@H](Cc3ccccc3)C(=O)N2)CCCC=CCCC[C@@](C)(C(=O)N[C@@H](C)C(=O)N[C@@H](CCCCN)C(=O)N[C@@H](CCCCN)C(N)=O)NC(=O)[C@H](CCC(=O)O)NC(=O)CNC1=O [compound 2] (H-G[S5]GKF[S5]KSKKKFGKA[S5]VGE[S5]AKK-NH2; staple 2-6, 16-20)",2 µg/mL,2 µg/mL,4 µg/mL,4 µg/mL,64 µg/mL,116 µg/mL,143 µg/mL
"CC(C)[C@@H]1NC(=O)[C@H](C(C)C)NC(=O)[C@@](C)(NC(=O)[C@H](C)NC(=O)[C@H](CCCCN)NC(=O)CNC(=O)[C@H](Cc2ccccc2)NC(=O)[C@H](CCCCN)NC(=O)[C@H](CCCCN)NC(=O)[C@H](CCCCN)NC(=O)[C@H](CO)NC(=O)[C@H](CCCCN)NC(=O)[C@]2(C)CCCC=CCCC[C@](C)(NC(=O)CN)C(=O)NCC(=O)N[C@@H](CCCCN)C(=O)N[C@@H](Cc3ccccc3)C(=O)N2)CCCC=CCCC[C@@](C)(C(=O)N[C@@H](C)C(=O)N[C@@H](CCCCN)C(=O)N[C@@H](CCCCN)C(N)=O)NC(=O)[C@H](CCC(=O)O)NC1=O [compound 19] (H-G[S5]GKF[S5]KSKKKFGKA[S5]VVE[S5]AKK-NH2; staple 2-6, 16-20)",2 µg/mL,2 µg/mL,4 µg/mL,4 µg/mL,>64 µg/mL,92 µg/mL,95 µg/mL
"CC(C)[C@@H]1NC(=O)[C@@](C)(NC(=O)[C@H](C)NC(=O)[C@H](CCCCN)NC(=O)CNC(=O)[C@H](Cc2ccccc2)NC(=O)[C@H](CCCCN)NC(=O)[C@H](CCCCN)NC(=O)[C@H](CCCCN)NC(=O)[C@H](CCCCN)NC(=O)[C@H](Cc2c[nH]cn2)NC(=O)[C@]2(C)CCCC=CCCC[C@](C)(NC(=O)CN)C(=O)NCC(=O)N[C@@H](CCCCN)C(=O)N[C@@H](Cc3ccccc3)C(=O)N2)CCCC=CCCC[C@@](C)(C(=O)N[C@@H](C)C(=O)N[C@@H](CCCCN)C(=O)N[C@@H](CCCCN)C(N)=O)NC(=O)[C@H](CCC(=O)O)NC(=O)CNC1=O [compound 3] (H-G[S5]GKF[S5]HKKKKFGKA[S5]VGE[S5]AKK-NH2; staple 2-6, 16-20)",4 µg/mL,4 µg/mL,4 µg/mL,16 µg/mL,>64 µg/mL,> 200 µg/mL,> 200 µg/mL
